Laboratory results: patent US20250059180A1 (DONG WHA PHARM. CO., LTD., priority 2022, published 2025)
Where two headings read alike, the source gives them in different places.

Test system: Pfeiffer cells, lymphoma cells having EZH2 mutation (A677G)
Test: Proliferation inhibition of cells of hematologic malignancies (CCK-8, 11 days)
Format: cell-based
Conditions: 11 days culture, read-out: Cell proliferation inhibitory effect (IC50)
How it was run: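 Pfeiffer lymphoma cells (EZH2 A677G) in RPMI1640 with 10% FBS were seeded at 10,000 cells/well and exposed to test material for 11 days, with compound replaced every 3–4 days. Viability was read by CCK-8 absorbance at 450 nm, and IC50 was derived by non-linear regression curve fitting.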

Row | IC50 | IC50 (Homo sapiens, Pfeiffer, 264 h) | Compound
1 | ≥ 100 nM |  | CSc1cc(C)[nH]c(=O)c1CNC(=O)c1cc(-c2cnc(N3CCOCC3)nc2)c2c(c1C)OC(C)(C1CCN(CC(F)F)CC1)O2 (single isomer, unassigned) [Compound 72, 2-(1-(2,2-difluoroethyl)piperidin-4-yl)-2,4-dimethyl-N-((6-methyl-4-(methylthio)-2-oxo-1,2-dihydropyridin-3-yl)methyl)-7-(2-morpholinopyrimidin-5-yl)benzo[d][1,3]dioxole-5-carboxamide]
2 | 10 to 100 nM |  | CCN(C)c1ncc(-c2cc(C(=O)NCc3c(SC)cc(C)[nH]c3=O)c(C)c3c2OC(C)(C2CCN(CC(F)F)CC2)O3)cn1 (single isomer, unassigned) [Compound 82, 2-(1-(2,2-difluoroethyl)piperidin-4-yl)-7-(2-(ethyl(methyl)amino)pyrimidin-5-yl)-2,4-dimethyl-N-((6-methyl-4-(methylthio)-2-oxo-1,2-dihydropyridin-3-yl)methyl)benzo[d][1,3]dioxole-5-carboxamide]
3 |  | ≤ 10 nM | CSc1cc(C)[nH]c(=O)c1CNC(=O)c1cc(-c2c(C)noc2C)c2c(c1C)OC(C)([C@H]1CC[C@H](N(C)C)CC1)O2 (stereo partly drawn) [Compound 13, 2-(trans-4-(dimethylamino)cyclohexyl)-7-(3,5-dimethylisoxazol-4-yl)-2,4-dimethyl-N-((6-methyl-4-(methylthio)-2-oxo-1,2-dihydropyridin-3-yl)methyl)benzo[d][1,3]dioxole-5-carboxamide]
4 |  | ≥ 100 nM | CSc1cc(C)[nH]c(=O)c1CNC(=O)c1cc(-c2ccc3occc3c2)c2c(c1C)OC(C)(C1CCN(CC(F)(F)F)CC1)O2 (stereo not drawn) [Compound 96, 7-(benzofuran-5-yl)-2,4-dimethyl-N-((6-methyl-4-(methylthio)-2-oxo-1,2-dihydropyridin-3-yl)methyl)-2-(1-(2,2,2-trifluoroethyl)piperidin-4-yl)benzo[d][1,3]dioxole-5-carboxamide]
5 |  | ≤ 10 nM | CSc1cc(C)[nH]c(=O)c1CNC(=O)c1cc(-c2cnc(N3C[C@@H](C)O[C@@H](C)C3)nc2)c2c(c1C)OC(C)(C1CCN(CC(F)(F)F)CC1)O2 (stereo partly drawn) [Compound 38, 7-(2-((2S,6R)-2,6-dimethylmorpholino)pyrimidin-5-yl)-2,4-dimethyl-N-((6-methyl-4-(methylthio)-2-oxo-1,2-dihydropyridin-3-yl)methyl)-2-(1-(2,2,2-trifluoroethyl)piperidin-4-yl)benzo[d][1,3]dioxole-5-carboxamide]
6 | ≥ 100 nM |  | CSc1cc(C)[nH]c(=O)c1CNC(=O)c1cc(-c2ccc(N3C[C@@H](C)O[C@@H](C)C3)nc2)c2c(c1C)OC(C)(C1CCN(CCc3ccccc3)CC1)O2 (single isomer, unassigned) [Compound 56]
7 |  | ≤ 10 nM | CSc1cc(C)[nH]c(=O)c1CNC(=O)c1cc(-c2ccc(N3C[C@@H](C)O[C@@H](C)C3)nc2)c2c(c1C)OC(C)([C@H]1CC[C@H](N(C)CC(F)F)CC1)O2 (stereo partly drawn) [Compound 109]
8 |  | ≤ 10 nM | CSc1cc(C)[nH]c(=O)c1CNC(=O)c1cc(-c2cnc(N3C[C@@H](C)O[C@@H](C)C3)nc2)c2c(c1C)OC(C)([C@H]1CC[C@H](N(C)C)CC1)O2 (stereo partly drawn) [Compound 2, 2-(trans-4-(dimethylamino)cyclohexyl)-7-(2-((2S,6R)-2,6-dimethylaminomorpholino)pyrimidin-5-yl)-2,4-dimethyl-N-((6-methyl-4-(methylthio)-2-oxo-1,2-dihydropyridin-3-yl)methyl)benzo[d][1,3]dioxole-5-carboxamide]
9 | ≤ 10 nM |  | CCN1CCC(C2(C)Oc3c(-c4cnc(N5CCOCC5)nc4)cc(C(=O)NCc4c(SC)cc(C)[nH]c4=O)c(C)c3O2)CC1 (single isomer, unassigned) [Compound 73, 2-(1-ethylpiperidin-4-yl)-2,4-dimethyl-N-((6-methyl-4-(methylthio)-2-oxo-1,2-dihydropyridin-3-yl)methyl)-7-(2-morpholinopyrimidin-5-yl)benzo[d][1,3]dioxole-5-carboxamide]
